Test results taken from patent publication EP0306845A2, “Medicinal preparation containing certain derivatives of 6-mercaptopurine, use of these derivatives of 6-mercaptopurine, process for the preparation of the medicinal preparation and some derivatives of 6-mercaptopurine and process for their preparation” (HOECHST AKTIENGESELLSCHAFT, priority 1987, dated 1989).

Tested on: Friend-Leukämie-Virus
Experiment: In vivo test in mice infected with Friend leukaemia virus (retrovirus model; spleen weight)
Parameters: species or system Maus
Settings: for Wirkung im Vergleich zu Suramin: summary in words of the two experiments of the table
Description: Da für die HIV-Infektion des Menschen kein geeignetes Infektionsmodell bei Labortieren existiert, muß bei der Prüfung von Chemotherapeutika auf Infektionen mit anderen Retroviren zurückgegriffen werden. Sowie die Hemmung der Virusreplikation in vivo aufgrund einer spezifischen Blockierung der RT (= Reverse Transkriptase)-Aktivität untersucht wird, erscheint die Wahl eines solchen Ersatzmodelles gerechtfertigt. Im vorliegenden Fall wurde die Infektion der Maus mit dem Friend-Leukämie-Virus gewählt.
Dazu wurden normale Labormäuse (NMRI = Naval Medical Research Institute) durch intravenöse Injektion mit Friend-Virus enthaltendem Mäuseserum infiziert. Bei den unbehandelten Kontrolltieren entwickelte sich als Symptom der Infektion innerhalb von zwei Wochen eine deutliche Vergrößerung von Milz und Leber. Die Behandlung erfolgte über 10 Tage, beginnend 48 Stunden nach der Infektion. Am 14. Versuchstag wurden die tiere durch Luxation der Halswirbel getötet und geöffnet. Die Milz wurde entnommen und gewogen. Als Meßparameter der therapeutischen Wirksamkeit wurde das Milzgewicht der behandelten Tiere mit dem der unbehandelten Infektionskontrolle in Relation gesetzt.
Während bei uninfizierten ausgewachsenen Labormäusen (20 - 24 g Körpergewicht) die Milz weniger als 1 % des Körpergewichtes wog, erreichte bei infizierten Tieren die Milz am Ende des Versuchs bis zu etwa 10 % des Körpergewichtes. […] Suramin ist die Verbindung der Formel: [drawing 14]

Molecule	Wirkung im Vergleich zu Suramin	further results
6-Mercapto-9-[1,3-bis-(isopropoxy)-propyl-2-oxymethyl]-purin [Beispiel 2]	gegenüber dem Suramin Vorteile besitzen	–
6-Mercapto-9-[(1-hydroxy-3-isopropoxy-2-propoxy)methyl]-purin [Beispiel 3]	mit Suramin vergleichbar	–
OC[C@H]1O[C@@H](n2cnc3c(S)ncnc32)[C@H](O)[C@@H]1O [(1), 6-Mercapto-purin-9-D-ribosid]	gegenüber dem Suramin Vorteile besitzen	–
Nc1nc(S)c2ncn([C@@H]3O[C@H](CO)[C@@H](O)[C@H]3O)c2n1 [(2), 2-Amino-6-mercaptopurin-9-D-ribosid]	–	Relat Milzgewicht in % vom Körpergewicht (Versuch 1 (Virus-Verdünnung 1:5000), NMRI mice, 10 x 1,0 mg/Maus i.p., spleen weighed on day 14): 0,5 % vom Körpergewicht
Cc1ccc(C(=O)Nc2ccc(S(=O)(=O)O)c3cc(S(=O)(=O)O)cc(S(=O)(=O)O)c23)cc1NC(=O)c1cccc(NC(=O)Nc2cccc(C(=O)Nc3cc(C(=O)Nc4ccc(S(=O)(=O)O)c5cc(S(=O)(=O)O)cc(S(=O)(=O)O)c45)ccc3C)c2)c1 [Suramin, reference compound]	–	Milzwachstum (infected mice, treatment with the comparison preparation, mostly statistically significant (P 0,05)): Verringerung des Milzwachstums
